Laboratory results: patent US20240156800A1, “EP300 DEGRADER AND USES THEREOF IN NEUROBLASTOMA” (DANA-FARBER CANCER INSTITUTE, INC., priority 2021, published 2024)
Where two headings read alike, the source gives them in different places.

What was measured:
[1] = Pharmacokinetic analysis after a single intraperitoneal dose in CD1 mice; format: in vivo, mouse; details: 10 mg/Kg single IP dose, murine serum
Experimental: For toxicity studies, four female CD1 mice (Charles River Laboratories) were injected intraperitoneally (IP) with single doses of 10 mg/Kg (R,S)-JQAD1 solubilized in 10% hydroxypropyl β-cyclodextrin (Sigma-Aldrich®) in sterile water. Following injection, blood concentration of (R,S)-JQAD1 was measured by serial measurements of animal serum at time points out to 24 h, by liquid chromatography with tandem mass spectrometry (LC-MS/MS) analysis. Pharmacokinetics were performed at ChemPartner in Shanghai, China, using LC-MS/MS method and pharmacokinetics parameters (Tmax, Cmax, T1/2, AUC, etc.) calculated with WinNonlin® V 6.2 statistics software (Pharsight Corporation) using a noncompartmental model. For maximally tolerated dose (MTD) testing, six female CD1 mice were treated with daily IP doses of (R,S)-JQAD1 at 10, 20, or 40 mg/kg. Animals were monitored for animal weight, grooming and behavior daily without noted effects. For MTD testing in humanized CRBN knockin (Balb/c CRBN^ILE391VAL) (Jackson Laboratories), 6 mice per treatment group were treated with either vehicle control or (R,S)-JQAD1 at 40 mg/kg/day by IP injection. Animal weights, behavior and grooming were monitored daily, for a total of 21 days. At day 14, three mice per treatment group were sacrificed and tissues fixed for immunohistochemistry. Blood samples were obtained by retro-orbital puncture and blood analyzed at the Small Animal Imaging Facility at Beth Israel Deaconess Medical Center (Boston, MA), on a Hemavet® 9500FS (Drew Scientific) for blood counts, creatinine, AST, ALT, ALP, GGTP, and BUN measurements.

CBP = target: T1, CBP (Homo sapiens, UniProt Q92793); assay: SILAC mass spectrometry of the nuclear proteome of Kelly cells (CBP); format: cell-based; details: 500 nM, 24 h, nuclear extract
T1 construct: Cells growing in culture were lysed for whole cell lysates; endogenous in cells; host or cells: Kelly, NGP, SIMA, BE2C neuroblastoma cells; Kelly xenografts in NSG mice
T1 sequence (Q92793 whole entry): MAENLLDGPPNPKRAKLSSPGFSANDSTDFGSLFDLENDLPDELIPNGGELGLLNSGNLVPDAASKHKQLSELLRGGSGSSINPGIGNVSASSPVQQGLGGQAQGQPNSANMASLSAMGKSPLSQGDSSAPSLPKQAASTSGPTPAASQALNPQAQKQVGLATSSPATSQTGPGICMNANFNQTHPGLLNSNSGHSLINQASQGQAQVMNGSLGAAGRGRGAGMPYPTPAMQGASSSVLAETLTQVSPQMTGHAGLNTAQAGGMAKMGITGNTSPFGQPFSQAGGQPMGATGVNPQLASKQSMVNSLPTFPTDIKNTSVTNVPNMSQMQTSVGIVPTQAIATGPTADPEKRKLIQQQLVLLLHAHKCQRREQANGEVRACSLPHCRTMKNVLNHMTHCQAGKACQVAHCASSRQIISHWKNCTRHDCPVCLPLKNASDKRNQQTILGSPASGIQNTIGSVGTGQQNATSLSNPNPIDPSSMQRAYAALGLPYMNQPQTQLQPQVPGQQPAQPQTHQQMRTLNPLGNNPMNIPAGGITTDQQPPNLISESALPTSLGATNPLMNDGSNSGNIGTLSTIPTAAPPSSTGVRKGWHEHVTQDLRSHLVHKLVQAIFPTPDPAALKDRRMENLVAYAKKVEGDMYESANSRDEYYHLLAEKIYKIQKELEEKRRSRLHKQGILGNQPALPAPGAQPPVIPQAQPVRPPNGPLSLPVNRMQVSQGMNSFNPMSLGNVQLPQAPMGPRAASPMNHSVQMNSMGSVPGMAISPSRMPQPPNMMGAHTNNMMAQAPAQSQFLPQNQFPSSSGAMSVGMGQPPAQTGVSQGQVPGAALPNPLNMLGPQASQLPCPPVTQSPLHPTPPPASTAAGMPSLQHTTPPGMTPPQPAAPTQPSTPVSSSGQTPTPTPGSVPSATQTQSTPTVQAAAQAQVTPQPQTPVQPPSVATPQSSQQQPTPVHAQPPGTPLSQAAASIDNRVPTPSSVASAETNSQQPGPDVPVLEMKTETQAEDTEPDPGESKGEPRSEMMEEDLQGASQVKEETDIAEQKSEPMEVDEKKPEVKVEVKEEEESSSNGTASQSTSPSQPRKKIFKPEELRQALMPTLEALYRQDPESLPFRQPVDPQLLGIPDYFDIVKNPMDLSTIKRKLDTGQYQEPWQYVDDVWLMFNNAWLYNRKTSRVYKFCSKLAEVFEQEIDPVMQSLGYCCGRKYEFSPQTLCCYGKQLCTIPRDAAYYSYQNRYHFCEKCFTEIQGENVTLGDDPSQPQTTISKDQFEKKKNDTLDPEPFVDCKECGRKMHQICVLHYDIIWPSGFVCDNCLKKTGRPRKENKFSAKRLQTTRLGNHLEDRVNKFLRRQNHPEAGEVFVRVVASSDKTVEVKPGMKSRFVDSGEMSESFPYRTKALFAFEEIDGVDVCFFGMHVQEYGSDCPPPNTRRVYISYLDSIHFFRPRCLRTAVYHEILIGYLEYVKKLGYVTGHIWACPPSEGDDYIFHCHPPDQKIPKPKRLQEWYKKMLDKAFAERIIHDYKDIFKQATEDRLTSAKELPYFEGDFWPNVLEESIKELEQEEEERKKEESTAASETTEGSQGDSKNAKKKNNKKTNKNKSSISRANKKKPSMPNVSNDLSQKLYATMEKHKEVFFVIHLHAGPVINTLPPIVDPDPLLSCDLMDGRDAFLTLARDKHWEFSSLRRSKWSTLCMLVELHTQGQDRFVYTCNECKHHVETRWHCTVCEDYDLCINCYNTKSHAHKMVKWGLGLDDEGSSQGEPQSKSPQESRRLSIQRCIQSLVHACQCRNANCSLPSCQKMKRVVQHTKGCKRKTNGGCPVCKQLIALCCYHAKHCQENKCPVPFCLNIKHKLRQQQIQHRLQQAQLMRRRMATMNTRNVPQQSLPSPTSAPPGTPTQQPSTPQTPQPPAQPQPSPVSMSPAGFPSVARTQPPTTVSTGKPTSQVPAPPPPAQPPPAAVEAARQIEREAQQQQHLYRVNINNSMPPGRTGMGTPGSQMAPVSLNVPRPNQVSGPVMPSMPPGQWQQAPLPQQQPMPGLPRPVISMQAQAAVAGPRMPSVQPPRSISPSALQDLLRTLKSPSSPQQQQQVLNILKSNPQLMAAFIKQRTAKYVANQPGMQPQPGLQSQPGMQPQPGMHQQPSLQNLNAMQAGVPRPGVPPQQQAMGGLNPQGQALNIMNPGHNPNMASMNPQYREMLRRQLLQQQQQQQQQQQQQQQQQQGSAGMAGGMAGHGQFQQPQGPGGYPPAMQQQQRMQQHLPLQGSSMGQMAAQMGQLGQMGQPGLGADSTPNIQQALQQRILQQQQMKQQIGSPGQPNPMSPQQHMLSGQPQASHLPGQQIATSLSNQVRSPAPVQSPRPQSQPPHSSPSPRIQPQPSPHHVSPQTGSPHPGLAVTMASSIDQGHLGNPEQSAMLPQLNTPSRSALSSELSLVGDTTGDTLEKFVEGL
Experimental: Because JQAD1 interacted preferentially with both EP300 and CRBN, whether JQAD1 preferentially induces degradation of EP300 compared to CBP in MYCN-amplified neuroblastoma cells was examined. […] To further examine the specificity of JQAD1 for EP300, an analysis of the effects of JQAD1 in stable isotope labeling by amino acids in cell culture (SILAC)-labelled Kelly cells was performed (FIG. 3F). Kelly cells were cultured with SILAC media containing heavy or light-labelled arginine and lysine. Heavy labelled cells were treated with 500 nM JQAD1, and light-labelled cells treated with dimethyl sulfoxide (DMSO) for 24 h, prior to nuclear extraction and protein lysis. […] Protein abundance was then analyzed by mass spectrometry, to determine global changes in the nuclear proteome. […] To expand upon these findings, three NB cell lines, Kelly, NGP and SIMA, which have high levels of CRBN (e.g., protein or mRNA) (FIG. 8C), were treated with JQAD, and the effects on specific proteins were measured by western blotting. […] Peptides were detected, isolated, and fragmented to produce a tandem mass spectrum of specific fragment ions for each peptide. Peptide sequences and protein identity were determined by matching protein databases with the acquired fragmentation pattern by Sequest® (Thermo Fisher Scientific) (Eng et al. J. Am. Soc. Mass Spectrom. 5:976-89 (1994)). […]

BE2C-CRBN cells = assay: Cell-Titer Glo growth of BE2C cells overexpressing CRBN or zsGreen; format: cell-based, human; details: 10 μM, 6 days
Experimental: Cells were infected with lentiviruses encoding sgRNAs or treated with compounds as described. Colony assays were performed by replating cells at 500 cells per well in 6-well dishes and grown in regular growth media for 10 d before 100% methanol fixation, 0.05% crystal violet staining, and quantitation. Experiments were completed in triplicate; data shown are the average of three independent experiments. Cell Titer-Glo® assay was performed as per the manufacturer's instructions (Promega®). Briefly, 1000 cells/well were plated into 96-well plates and treated with a range of compound dosing. Cell viability was measured at the noted time points based on luminescence by the Cell Titer-Glo® assay (Promega®) and read on an Envision 2104 (PerkinElmer®, USA) according to the manufacturer's protocol.
sgRNAs targeting individual genes were subcloned by standard methodologies within pLKO.5-EFGP. Kelly, SIMA, BE2C, and NGP cells were infected with lenticas9 followed by blasticidin selection. Stable expression of cas9 was established by western blotting of protein lysates using cas9 antibody (Cell Signaling Technology®). Following infection of pLKO.5-EGFP-sgRNA lentivirus, cells were cultured for the identified times prior to evaluation. BE2C cells were infected with pLC-zsgreen or pLC-CRBN lentiviruses and selected using 500 μg/mL hygromycin (Invitrogen™)

For `C[C@H](N(Cc1ccc(F)cc1)C(=O)CN1C(=O)O[C@@]2(CCc3cc(NC(=O)CCCCCCCCCCCNc4ccc5c(c4)C(=O)N(C4CCC(=O)NC4=O)C5=O)ccc32)C1=O)C(F)(F)F` (stereo partly drawn) [JQAD1, 12-((2-(2,6-dioxopiperidin-3-yl)-1,3-dioxoisoindolin-5-yl)amino)-N-((R)-3′-(2-((4-fluorobenzyl)((S)-1,1,1-trifluoropropan-2-yl)amino)-2-oxoethyl)-2′,4′-dioxo-2,3-dihydrospiro[indene-1,5′-oxazolidin]-5-yl)dodecanamide], the half-life [1] was 13.3 (+/−3.37) h, the Cmax ([1]; female, mouse) was 7 µM and the half-life ([1]; female, mouse, read-out: half-life (converted)) was 13.3 h. For the same compound, the CBP protein abundance (CBP) was “remained detectable at similar levels as controls” and the “growth of BE2C-CRBN cells” value (BE2C-CRBN cells) was “suppressed”.
